How the values were obtained:
[1] = test system: Methicillin Resistant Staphylococcus aureus (MRSA, USA 400); assay: Colony forming assay, 24 h plate assay, MRSA USA 400; type: cell-based
Protocol: Proliferating cultures of Methicillin Resistant Staphylococcus aureus (MRSA, USA 400) were used in a colony forming assay. Frozen stock cultures of MRSA USA 400 were thawed and grown overnight in tryptic soy broth (TSB) with shaking at 37° C. The overnight culture (0.5-1.0 mL) was added to 100 mL TSB and grown at 37° C. with shaking and monitored for an optical density of 0.55-0.60 in order to obtain a final inoculum suspension of approximately 10^8 CFU/mL.
BM3103 was suspended into a 70% v/v alcohol gel formulation to acquire the desired % w/v tested within the example. Each concentration was vortexed thoroughly until dissolved. Initial tested concentrations of BM3103 were 1, 0.5, and 0.1% w/v. These concentrations and the alcohol gel vehicle were mixed with equal parts of the 10^8 CFU/mL inoculum to obtain a final concentration of 0.5, 0.25, and 0.05% (22 mM, 11 mM, and 2 mM) BM3103. Tobramycin (600 μg/mL) served as the positive control. Vehicle and BM3103 formulations contained matching final concentration of 35% v/v alcohol.
BM3103 was dissolved into Transcutol (diethylene glycol monoethyl ether) at 2.5% w/v and vortexed until dissolved. This concentration was then serial diluted to achieve the remaining concentrations tested. Before plating, 100 μL of the final inoculum (10^8 CFU/mL) was mixed with 20 μL TSB broth and 80 μL of BM3103 doses or vehicle. Tobramycin, 600 μg/mL, served as the positive control. The final plating concentrations for BM3103 were 1, 0.5, 0.25, and 0.1% w/v (44 mM, 22 mM, 11 mM, 4 mM) BM3103. Vehicle and BM3103 formulations contained matching final concentration of 40% v/v Transcutol.
The above listed formulations combined with the MRSA inoculum were plated onto TSB agar plates. The plates were grown at 37° C. for 24 h, imaged, and the bacteria colonies were counted. The experiment was done in triplicate at each concentration level described above. Colony counts for each treatment were tabulated and the Log of the colony forming units/mL (Log CFU/mL) were determined. The mean and the standard error of the mean were calculated for each treatment.

[2] = test system: NEB 5 α competent E. coli; assay: Bacterial colony forming assay (Examples 6-9); type: cell-based; details: for Effect on E. coli colony count: PEG-400/HPβCD mixed into alcohol gel, FIG. 1; for Inhibition of E. coli growth: alcohol gel formulation, FIG. 2
Protocol: NEB 5 α competent E. coli were retrieved from frozen cultures and grown overnight in a bacterial incubator at 37° C. Proliferating cultures of bacteria were used in a colony forming assay by adding 25 μL of bacteria from the overnight culture to 10 mL of fresh Lysogeny Broth (LB; Bertani, G. (2004). “Lysogeny at mid-twentieth century: P1, P2, and other experimental systems”. Journal of Bacteriology. 186 (3): 595-600. PMC 321500. PMID 14729683. doi:10.1128/JR.186.3.595-600.2004). 1 mL of this diluted bacteria was added to various dilutions of formulations of substituted tolan compounds as described in Table C, below and in charts of the corresponding Figures.
One mL of each formulation was mixed with 1 mL of diluted bacteria in LB and put onto agar plates. Alcohol gels were allowed to dry and incubated overnight for 16-18 hrs. Control plates consisted of 2 mL alcohol gel plus 1 mL diluted bacteria, resulting in a colony count of less than 10 colonies, a 1 mL alcohol gel plus 1 mL diluted bacteria, resulting in a partial lawn of bacteria (colonies were too close to count appropriately), 1 mL diluted bacteria alone, resulting in a full lawn of bacteria (no distinguishable colonies), and an appropriate dilution of PEG-400 and HPβCD into 1 mL of alcohol gel plus 1 mL diluted bacteria, resulting in a lawn of bacteria. Plate area was then selected and the Image J colony counter was used to obtain colony counts (Size (pixels squared) 5-1000 and circularity 0.5-1).

## COc1ccc(C#Cc2ccc(O)cc2)cc1 [BM3103, 4-hydroxy-4′-methoxytolan]
[1]; 0.05% w/v, 2 mM, alcohol gel formulation, compared to the vehicle control, FIG. 9
  Reduction of MRSA USA 400 counts: 4 fold
[1]; 0.1% BM3103, Transcutol formulation, FIG. 10
  Reduction of MRSA USA 400 counts: > 5 fold
[1]; 0.25% BM3103, alcohol gel formulation, FIG. 9
  Bacterial count of MRSA USA 400: no bacterial count
[1]; 0.5% BM3103, alcohol gel formulation, FIG. 9
  Bacterial count of MRSA USA 400: no bacterial count
[1]; remaining concentrations tested (1, 0.5, 0.25% w/v), Transcutol formulation, FIG. 10
  Bacterial count of MRSA USA 400: no bacterial count
[2]; 280 μM (62.5 μg/mL) dilution
  Effect on E. coli colony count: reduced the E. coli colony count considerably
[2]; 557 μM (125 μg/mL) dilution
  Effect on E. coli colony count: reduced colonization even more
[2]; 2.23 mM (500 μg/mL)
  Inhibition of E. coli growth: inhibited E. coli growth completely
[2]; 4.45 mM (1000 μg/mL)
  Inhibition of E. coli growth: inhibited E. coli growth completely

From patent US12678412B2, “Substituted tolans for the modulation of microbial colonization” (BioMendics, LLC, priority 2017, dated 2026)
